Patent US7560458B2, “Triazolopyrimidine derivatives as glycogen synthase kinase 3 inhibitors” (Janssen Pharmaceutica, N.V., priority 2003, dated 2009)

What was measured:
[1] = target: GSK3β (Homo sapiens, UniProt P49841); experiment: GSK3beta assay (SPA, biotinylated phosphorylated CREB peptide, ATP-P33); type: biochemical; settings: −log IC50 (M); given as ranges (>8; 7-8; <7); read-out: pIC50 (GSK3beta) (converted)
Procedure: (§1) GSK3beta assays were performed at room temperature in a 100 μl reaction volume of 25 mM Tris (ph 7.4) containing 10 mM MgCl2.6H2O 1 mM DTT, 0.1 mg/ml BSA, 5% glyceol and containing 5.7 ng/μl GSK3β, 5 μM biotinylated phosphorylated CREB peptide, 1 μM APT, 0.85 μCi/ml ATP-P^33 and a suitable amount of a test compound of formula (I). After one hour, the reaction was terminated by adding 70 μl of Stop mix (0.1 mM APT, 5 mg/ml streptavidin coated PVT SPA bead pH 11.0). The beads to which the phosphorylated CREB peptide is attached were allowed to settle overnight and the radioactivity of the beads was counted in a microtiterplate scintillation counter and compared with the results obtained in a control experiment (without the presence of a test compound) in order to determine the percentage of GSK3β inhibition. The IC50 value, i.e. the concentration (M) of the test compound at which 50% of GSK3β is inhibited, was calculated from the dose response curve obtained by performing the above-described GSKK3β assay in the presence of different amounts of the test compound.

[2] = target: GSK3alpha (Homo sapiens, UniProt P49840); experiment: GSK3alpha assay (same as the GSK3beta assay, GSK3alpha 0.25 ng/μl); type: biochemical; settings: −log IC50 (M); given as ranges (>8; 7-8; <7); read-out: pIC50 (GSK3alpha) (converted)
Procedure: as §1
The GSK3alpha assay was performed in the same way as described above for the GSK3beta assay except for the concentration of GSK3alpha which is 0.25 ng/μl.

GSK3β, sequence (P49841 whole entry, species assumed): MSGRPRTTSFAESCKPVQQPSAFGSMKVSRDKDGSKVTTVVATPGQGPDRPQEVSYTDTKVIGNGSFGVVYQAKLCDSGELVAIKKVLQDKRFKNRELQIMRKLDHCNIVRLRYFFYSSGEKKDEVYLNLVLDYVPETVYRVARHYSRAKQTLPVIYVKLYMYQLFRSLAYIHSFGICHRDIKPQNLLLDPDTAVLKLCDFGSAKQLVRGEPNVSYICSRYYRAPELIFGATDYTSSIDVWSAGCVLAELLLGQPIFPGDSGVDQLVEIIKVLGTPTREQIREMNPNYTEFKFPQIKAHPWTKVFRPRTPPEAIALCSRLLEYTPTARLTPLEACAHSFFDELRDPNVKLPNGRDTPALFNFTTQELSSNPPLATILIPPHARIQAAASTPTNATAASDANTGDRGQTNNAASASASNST
GSK3alpha, sequence (P49840 whole entry, species assumed): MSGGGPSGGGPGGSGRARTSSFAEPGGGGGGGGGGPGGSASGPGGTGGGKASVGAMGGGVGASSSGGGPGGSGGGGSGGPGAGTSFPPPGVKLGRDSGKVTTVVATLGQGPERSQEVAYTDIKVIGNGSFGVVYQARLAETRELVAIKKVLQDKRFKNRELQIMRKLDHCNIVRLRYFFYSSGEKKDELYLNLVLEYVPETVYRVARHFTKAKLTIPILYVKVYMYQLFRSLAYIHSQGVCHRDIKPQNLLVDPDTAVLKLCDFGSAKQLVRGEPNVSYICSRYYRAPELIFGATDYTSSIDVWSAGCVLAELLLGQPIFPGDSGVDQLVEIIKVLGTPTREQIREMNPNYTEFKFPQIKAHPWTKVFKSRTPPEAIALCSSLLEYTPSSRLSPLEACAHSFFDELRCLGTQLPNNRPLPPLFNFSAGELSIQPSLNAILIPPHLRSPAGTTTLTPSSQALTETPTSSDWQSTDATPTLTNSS

COCC(=O)NCc1cccc(-n2nnc3cnc(Nc4ccc(NC(C)=O)c(C(=O)OC)c4)nc32)c1 [Compound 157]
IC50 [1]: < 1e-08 M
IC50 [2]: < 1e-08 M

O=C(NCCO)c1cccc(Nc2ncc3nnn(-c4cccc(F)c4)c3n2)c1 [Compound 101]
IC50 [1]: < 1e-08 M
IC50 [2]: < 1e-08 M

COc1ccc(Nc2ncc3nnn(-c4cccc(CC#N)c4)c3n2)cn1 [Compound 267]
IC50 [1]: < 1e-08 M
IC50 [2]: < 1e-08 M

COc1cccc(-n2nnc3cnc(Nc4cccc(C(C)O)c4)nc32)c1 (stereo not shown) [Compound 43]
IC50 [1]: < 1e-08 M
IC50 [2]: < 1e-08 M

NCCc1ccc(Nc2ncc3nnn(-c4cccc(F)c4)c3n2)cc1 [Compound 321]
IC50 [1]: 1e-08 to 1e-07 M
IC50 [2]: 1e-08 to 1e-07 M

COCCOc1cccc(-n2nnc3cnc(Nc4ccc(CNC(=O)OC(C)(C)C)cc4)nc32)c1 [Compound 302]
IC50 [1]: 1e-08 to 1e-07 M
IC50 [2]: < 1e-08 M

CC(=O)NCc1cccc(-n2nnc3cnc(Nc4ccc(S(N)(=O)=O)cc4)nc32)c1 [Compound 248]
IC50 [1]: < 1e-08 M
IC50 [2]: < 1e-08 M

NC(=O)c1ccc(Nc2ncc3nnn(-c4cccc(F)c4)c3n2)cc1 [Compound 307]
IC50 [1]: < 1e-08 M
IC50 [2]: < 1e-08 M

CC(O)c1cccc(Nc2ncc3nnn(-c4cccc(CC#N)c4)c3n2)c1 (stereo not shown) [Compound 278]
IC50 [1]: < 1e-08 M
IC50 [2]: < 1e-08 M

NS(=O)(=O)c1ccc(Nc2ncc3nnn(-c4cccc(F)c4)c3n2)cc1 [Compound 145]
IC50 [1]: < 1e-08 M
IC50 [2]: < 1e-08 M

O=C(O)c1cccc(Nc2ncc3nnn(-c4cccc(CO)c4)c3n2)c1 [Compound 68]
IC50 [2]: 1e-08 to 1e-07 M

CN(C)S(=O)(=O)c1cccc(Nc2ncc3nnn(-c4cccc(F)c4)c3n2)c1 [Compound 94]
IC50 [1]: < 1e-08 M
IC50 [2]: < 1e-08 M

CN(C)C(=O)c1ccc(Nc2ncc3nnn(-c4cccc(F)c4)c3n2)cc1 [Compound 309]
IC50 [1]: < 1e-08 M
IC50 [2]: < 1e-08 M

COCc1cccc(-n2nnc3cnc(Nc4ccc(C(=O)O)c(Cl)c4)nc32)c1 [Compound 138]
IC50 [1]: < 1e-08 M
IC50 [2]: < 1e-08 M

NS(=O)(=O)c1ccc(Nc2ncc3nnn(-c4cccc(CNC(=O)C56CC7CC(CC(C7)C5)C6)c4)c3n2)cc1 [Compound 243]
IC50 [1]: 1e-08 to 1e-07 M
IC50 [2]: 1e-08 to 1e-07 M

COCc1cccc(-n2nnc3cnc(Nc4ccc(C(=O)O)cc4)nc32)c1 [Compound 125]
IC50 [1]: < 1e-08 M
IC50 [2]: < 1e-08 M

COCc1cccc(-n2nnc3cnc(Nc4cccc(S(N)(=O)=O)c4)nc32)c1 [Compound 85]
IC50 [1]: 1e-08 to 1e-07 M
IC50 [2]: < 1e-08 M

COCCOc1cccc(-n2nnc3cnc(Nc4ccc(CN)cc4)nc32)c1 [Compound 305]
IC50 [1]: 1e-08 to 1e-07 M
IC50 [2]: < 1e-08 M

O=C(O)CNC(=O)c1ccc(Nc2ncc3nnn(-c4cccc(CNC(=O)C56CC7CC(CC(C7)C5)C6)c4)c3n2)cc1 [Compound 238]
IC50 [1]: < 1e-08 M
IC50 [2]: < 1e-08 M

COCc1cccc(-n2nnc3cnc(Nc4ccc(CN)cc4)nc32)c1 [Compound 315]
IC50 [1]: < 1e-08 M
IC50 [2]: < 1e-08 M

O=C(O)c1cc(Nc2ncc3nnn(-c4cccc(F)c4)c3n2)ccc1Cl [Compound 70]
IC50 [2]: 1e-08 to 1e-07 M

CCOC(=O)NCc1cccc(-n2nnc3cnc(Nc4cccc([S+](C)[O-])c4)nc32)c1 (stereo not shown) [Compound 223]
IC50 [1]: < 1e-08 M
IC50 [2]: < 1e-08 M

COCCNS(=O)(=O)c1cccc(Nc2ncc3nnn(-c4cccc(F)c4)c3n2)c1 [Compound 103]
IC50 [1]: > 1e-09 M
IC50 [2]: < 1e-08 M

CC(=O)Nc1cccc(Nc2ncc3nnn(-c4ccccc4)c3n2)c1 [Compound 59]
IC50 [1]: < 1e-08 M
IC50 [2]: < 1e-08 M

CS(=O)(=O)Nc1cccc(Nc2ncc3nnn(-c4cccc(F)c4)c3n2)c1 [Compound 45]
IC50 [1]: < 1e-08 M
IC50 [2]: < 1e-08 M

OCCc1ccc(Nc2ncc3nnn(-c4cccc(CCO)c4)c3n2)cc1 [Compound 260]
IC50 [1]: < 1e-08 M
IC50 [2]: < 1e-08 M

COc1ccc(Nc2ncc3nnn(-c4cccc(F)c4)c3n2)cn1 [Compound 91]
IC50 [1]: < 1e-08 M
IC50 [2]: < 1e-08 M

CC(=O)Nc1cccc(Nc2ncc3nnn(-c4cccc(S(N)(=O)=O)c4)c3n2)c1 [Compound 63]
IC50 [1]: < 1e-08 M
IC50 [2]: < 1e-08 M

COc1ccc(Nc2ncc3nnn(-c4cccc(CNC(C)=O)c4)c3n2)cn1 [Compound 127]
IC50 [1]: < 1e-08 M
IC50 [2]: < 1e-08 M

CC(=O)Nc1cccc(Nc2ncc3nnn(-c4cccc(F)c4)c3n2)c1 [Compound 11]
IC50 [1]: < 1e-08 M
IC50 [2]: < 1e-08 M

N#Cc1ccc(Nc2ncc3nnn(-c4cccc(CNC(=O)C5CC5)c4)c3n2)cc1 [Compound 203]
IC50 [1]: 1e-08 to 1e-07 M
IC50 [2]: < 1e-08 M

N#Cc1ccc(Nc2ncc3nnn(-c4cccc(C(=O)NCCO)c4)c3n2)cc1 [Compound 229]
IC50 [1]: < 1e-08 M
IC50 [2]: < 1e-08 M

O=S(=O)(CCO)c1cccc(Nc2ncc3nnn(-c4cccc(F)c4)c3n2)c1 [Compound 77]
IC50 [1]: < 1e-08 M
IC50 [2]: < 1e-08 M

NS(=O)(=O)c1ccc(Nc2ncc3nnn(-c4cccc(CCO)c4)c3n2)cc1 [Compound 169]
IC50 [1]: < 1e-08 M
IC50 [2]: < 1e-08 M

NS(=O)(=O)c1ccc(Nc2ncc3nnn(-c4cccc(C(=O)NCCO)c4)c3n2)cc1 [Compound 227]
IC50 [1]: 1e-08 to 1e-07 M
IC50 [2]: < 1e-08 M

COCc1cccc(Nc2ncc3nnn(-c4cccc(CNC(=O)CC(C)C)c4)c3n2)c1 [Compound 188]
IC50 [1]: < 1e-08 M
IC50 [2]: < 1e-08 M

COC(=O)c1cccc(Nc2ncc3nnn(-c4cccc(F)c4)c3n2)c1 [Compound 13]
IC50 [1]: 1e-08 to 1e-07 M

NCc1cccc(Nc2ncc3nnn(-c4cccc(F)c4)c3n2)c1 [Compound 79]
IC50 [1]: 1e-08 to 1e-07 M
IC50 [2]: 1e-08 to 1e-07 M

COCC(=O)NCc1cccc(-n2nnc3cnc(Nc4cccc(NC(C)=O)c4)nc32)c1 [Compound 156]
IC50 [1]: < 1e-08 M
IC50 [2]: < 1e-08 M

CS(=O)(=O)Nc1cccc(Nc2ncc3nnn(-c4cccc(CNC(=O)C56CC7CC(CC(C7)C5)C6)c4)c3n2)c1 [Compound 235]
IC50 [1]: 1e-08 to 1e-07 M
IC50 [2]: < 1e-08 M

CN(C)C(=O)c1ccc(Nc2ncc3nnn(-c4cccc(CC#N)c4)c3n2)cc1 [Compound 332]
IC50 [1]: < 1e-08 M
IC50 [2]: < 1e-08 M

NCCc1ccc(Nc2ncc3nnn(-c4cccc(CCO)c4)c3n2)cc1 [Compound 316]
IC50 [1]: < 1e-08 M
IC50 [2]: < 1e-08 M

NC(=O)c1cccc(Nc2ncc3nnn(-c4cccc(C(N)=O)c4)c3n2)c1 [Compound 39]
IC50 [1]: < 1e-08 M
IC50 [2]: < 1e-08 M

COc1ccc(Nc2ncc3nnn(-c4ccccc4)c3n2)cn1 [Compound 47]
IC50 [1]: < 1e-08 M
IC50 [2]: < 1e-08 M

NC(=O)CNS(=O)(=O)c1cccc(Nc2ncc3nnn(-c4cccc(F)c4)c3n2)c1 [Compound 98]
IC50 [1]: < 1e-08 M
IC50 [2]: < 1e-08 M

NCc1cccc(Nc2ncc3nnn(-c4ccccc4)c3n2)c1 [Compound 78]
IC50 [1]: 1e-08 to 1e-07 M
IC50 [2]: 1e-08 to 1e-07 M

NS(=O)(=O)c1ccc(Nc2ncc3nnn(-c4cccc(CNC(=O)C5CC5)c4)c3n2)cc1 [Compound 210]
IC50 [1]: < 1e-08 M
IC50 [2]: < 1e-08 M

COc1cccc(-n2nnc3cnc(Nc4cccc(NS(C)(=O)=O)c4)nc32)c1 [Compound 52]
IC50 [1]: < 1e-08 M
IC50 [2]: < 1e-08 M

OCc1cccc(Nc2ncc3nnn(-c4cccc(F)c4)c3n2)c1 [Compound 31]
IC50 [1]: < 1e-08 M
IC50 [2]: < 1e-08 M

COCCOCc1cccc(-n2nnc3cnc(Nc4cccc(C#N)c4)nc32)c1 [Compound 290]
IC50 [1]: < 1e-08 M

O=C(O)Cc1cccc(-n2nnc3cnc(Nc4cccc(C(=O)NCCO)c4)nc32)c1 [Compound 177]
IC50 [2]: 1e-08 to 1e-07 M
